How the values were obtained:
Type in all cases: in vivo, rabbit
[1] = system: WHHL rabbits; test: Incidence of xanthochromia in finger joints (Example 1, 32 weeks); settings: oral, CS-866 1 mg/kg, troglitazone 25 mg/kg, alone or combined
Procedure: (§1) A certain amount of an agent was administered orally for 32 weeks to 2-3 months old WHHL rabbits, Watanabe genetically hyperlipemic rabbits: supra (Biochimica et Biophysica Acta), etc., in groups of 4 to 7 animals each. Incidentally, food consumption was restricted to 120 g/day per animal. Blood samples were collected immediately before administration of the agent and 4, 8, 12, 16, 20, 24, 28 and 32 weeks after the start of administration to measure total cholesterol levels (mg/dl). There were no changes observed in any of the dose groups as compared with the control group to which no agents were administered. The test animals were subjected to autopsy in the 32nd week to investigate the surface area of aortic lesions (%) and the incidence of xanthochromia in finger joints (%).

[2] = system: WHHL rabbits; test: Arterial sclerosis progress inhibitory effect: surface area of aortic lesions (Example 1, 32 weeks); settings: oral, CS-866 1 mg/kg, troglitazone 25 mg/kg, alone or combined, autopsy in 32nd week
Procedure: as §1

[3] = system: WHHL rabbits; test: Arterial sclerosis progress inhibitory effect: surface area of aortic lesions (Example 2, 31 weeks); settings: oral, CS-866 0.5 mg/kg, pioglitazone 20 mg/kg, BRL-49653 2.5 mg/kg, alone or combined, autopsy in 31st week
Procedure: A certain amount of an agent was administered orally for 31 weeks to 2-3 months old WHHL rabbits, Watanabe genetically hyperlipemic rabbits: described supra (Biochimica et Biophysica Acta), etc., in groups of 5 to 7 animals each. Incidentally, food consumption was restricted to 100 g/day per animal. Blood samples were collected immediately before administration of the agent and 8, 16, 24 and 31 weeks after the start of administration to measure total cholesterol levels (mg/dl). There were no changes observed in any of the dose groups as compared with the control group to which no agents were administered. In addition, the test animals were subjected to autopsy in the 31st week to investigate the surface area of aortic lesions (%) and the incidence of xanthochromia in finger joints.

SMILES | Xanthochromia incidence (%) Forelimbs [1] [%] | Xanthochromia incidence (%) Hindlimbs [1] [%] | Xanthochromia incidence (%) Overall [1] [%] | Lesion surface area (%) Abdominal region [2] [%] | Lesion surface area (%) Arcuate region [2] [%] | Lesion surface area (%) Overall [2] [%] | Lesion surface area (%) Thoracic part [2] [%] | Lesion surface area (%) Abdominal region [3] [%] | Lesion surface area (%) Arcuate region [3] [%] | Lesion surface area (%) Overall [3] [%] | Lesion surface area (%) Thoracic part [3] [%]
Cc1c(C)c2c(c(C)c1O)CCC(C)(COc1ccc(CC3SC(=O)NC3=O)cc1)O2 (centres unmarked) [Troglitazone, 5-[4-(6-hydroxy-2,5,7,8-tetramethylchroman-2-ylmethoxy)benzyl]-2,4-thiazolidinedione] | 93 | 86 | 89 | 32 | 80 | 54 | 57 |  |  |  | 
CCc1ccc(CCOc2ccc(CC3SC(=O)NC3=O)cc2)nc1 (centres unmarked) [Pioglitazone, 5-[4-[2-(5-ethyl-pyridin-2-yl)ethoxy]phenylmethyl]-2,4-thiazolidinedione] |  |  |  |  |  |  |  | 32 ± 6 | 65 ± 6 | 52 ± 8 | 62 ± 12
CN(CCOc1ccc(CC2SC(=O)NC2=O)cc1)c1ccccn1 (centres unmarked) [BRL-49653, 5-[4-[2-[N-methyl-N-(pyridin-2-yl)amino]ethoxy]phenylmethyl]-2,4-thiazolidinedione] |  |  |  |  |  |  |  | 29 ± 4 | 83 ± 2 | 52 ± 5 | 54 ± 12
CCCc1nc(C(C)(C)O)c(C(=O)OCc2oc(=O)oc2C)n1Cc1ccc(-c2ccccc2-c2nnn[nH]2)cc1 [CS-866, (5-methyl-2-oxo-1,3-dioxolen-4-yl)methyl 4-(1-hydroxy-1-methylethyl)-2-propyl-1-[2′-(1H-tetrazol-5-yl)biphenyl-4-ylmethyl]imidazole-5-carboxylate] | 100 | 100 | 100 | 19 | 68 | 34 | 26 | 32 ± 8 | 66 ± 5 | 44 ± 7 | 41 ± 10

— patent US6610682B2, “Pharmaceutical compositions and methods for the treatment of arteriosclerosis” (Sankyo Company, Limited, priority 1996, dated 2003)
